{"source": "patent US20040175382A1", "about": "“Methods of using and compositions comprising selective cytokine inhibitory drugs for the treatment and management of disorders of the central nervous system” (priority 2003, published 2004)", "key": {"[1]": {"test_system": "TNF-α production following LPS-stimulation of human PBMC and human whole blood", "test": "in vitro pharmacological activity profile, comparison with thalidomide (cytokine production)", "assay_type": "cell-based", "procedure": "The pharmacological properties of 3-(3,4-dimethoxy-phenyl)-3-(1-oxo-1,3-dihydro-isoindol-2-yl)-propionamide, including activity comparisons with thalidomide, are characterized in in vitro studies. Studies examine the effects of 3-(3,4-dimethoxy-phenyl)-3-(1-oxo-1,3-dihydro-isoindol-2-yl)-propionamide on the production of various cytokines. In addition, a safety pharmacology study of 3-(3,4-dimethoxy-phenyl)-3-(1-oxo-1,3-dihydro-isoindol-2-yl)-propionamide is conducted in dogs and the effects of the compound on ECG parameters are examined further as part of three repeat-dose toxicity studies in primates.\nInhibition of TNF-α production following LPS-stimulation of human PBMC and human whole blood by 3-(3,4-dimethoxy-phenyl)-3-(1-oxo-1,3-dihydro-isoindol-2-yl)-propionamide is investigated in vitro (Muller et al., Bioorg. Med. Chem. Lett. 9:1625-1630, 1999). The IC50's of 3-(3,4-dimethoxy-phenyl)-3-(1-oxo-1,3-dihydro-isoindol-2-yl)-propionamide for inhibiting production of TNF-α following LPS-stimulation of PBMC and human whole blood is measured.\nThe pharmacological effects of 3-(3,4-dimethoxy-phenyl)-3-(1-oxo-1,3-dihydro-isoindol-2-yl)-propionamide derive from its action as an inhibitor of cellular response to receptor-initiated trophic signals (e.g., IGF-1, VEGF, cyclooxygenase-2), and other activities."}, "[2]": {"test": "cardiovascular and respiratory function in anesthetized dogs", "assay_type": "in vivo", "conditions": "anesthetized Beagle dogs; 400, 800 and 1,200 mg/kg/day ascending doses, infusion through the jugular vein", "procedure": "The effects of 3-(3,4-dimethoxy-phenyl)-3-(1-oxo-1,3-dihydro-isoindol-2-yl)-propionamide on cardiovascular and respiratory function are investigated in anesthetized dogs. Two groups of Beagle dogs (2/sex/group) are used. One group receives three doses of vehicle only and the other receives three ascending doses of 3-(3,4-dimethoxy-phenyl)-3-(1-oxo-1,3-dihydro-isoindol-2-yl)-propionamide (400, 800, and 1,200 mg/kg/day). In all cases, doses of 3-(3,4-dimethoxy-phenyl)-3-(1-oxo-1,3-dihydro-isoindol-2-yl)-propionamide or vehicle are successively administered via infusion through the jugular vein separated by intervals of at least 30 minutes."}, "[3]": {"test_system": "CBP+/− mutant mice", "conditions": "cited from earlier work"}, "[4]": {"test_system": "rat mesencephalonic neurons", "conditions": "in the presence of the adenylate cyclase activator forskolin; cited from earlier work"}, "[5]": {"test_system": "patients with PD", "conditions": "cited from earlier work"}}, "data": [{"molecule": "COc1ccc(C(CC(N)=O)N2Cc3ccccc3C2=O)cc1OC", "note": "(stereo not drawn) [3-(3,4-dimethoxy-phenyl)-3-(1-oxo-1,3-dihydro-isoindol-2-yl)-propionamide]", "values": [{"measurement": "effect on generation of inflammatory cytokines", "setting": "[1]; in vitro", "value": "suppresses the generation of inflammatory cytokines"}, {"measurement": "potency relative to thalidomide (times more potent)", "setting": "[1]; in vitro studies, pharmacological activity profile similar to thalidomide", "value": "5 to 50", "unit": "times"}, {"measurement": "cardiovascular and respiratory changes compared to the vehicle control group", "setting": "[2]", "value": "minimal at all doses"}]}, {"molecule": "COc1ccc([C@H]2CNC(=O)[C@H](Cc3cccc(C)c3)C2)cc1OC1CCCC1", "note": "[HT0712]", "values": [{"measurement": "long-term memory defects", "setting": "[3]", "value": "abolished the long-term memory defects"}]}, {"molecule": "CCCCOc1cc(CC2CNC(=O)N2)ccc1OC", "note": "(stereo not drawn) [Ro-20 1724]", "values": [{"measurement": "uptake of dopamine", "setting": "[4]", "value": "stimulate uptake of dopamine"}]}, {"molecule": "COc1ccc(C2CNC(=O)C2)cc1OC1CCCC1", "note": "(stereo not drawn) [Rolipram]", "values": [{"measurement": "dose-limiting side effect", "setting": "[5]; Phase II trials of PD", "value": "nausea"}, {"measurement": "deterioration of the therapeutic action of dopamine against Lisuride", "setting": "[5]; double-blind trial versus placebo, patients with PD already under treatment, 3 mg per day", "value": "no significant deterioration"}, {"measurement": "long-term memory defects", "setting": "[3]", "value": "abolished the long-term memory defects"}]}, {"molecule": "COCCOc1cc(OCCOC)cc(-c2nc(C)cc3cc(OC)c(OC)cc23)c1", "note": "[SDZ-MNS 949]", "values": [{"measurement": "uptake of dopamine", "setting": "[4]", "value": "stimulate uptake of dopamine"}]}]}
